In PubChem BioAssay (NCI):
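48-hour exposure; five concentrations; linearly interpolated endpoints. TGI marks complete inhibition of growth.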

Legend:
Experiment in all cases: DTP human tumour cell line panel, 48 h
NCI-H23 lung = test system: NCI-H23 lung
A549 NSCLC = test system: A549 NSCLC
MDA-N = test system: MDA-N
MDA-MB-435 = test system: MDA-MB-435
SK-MEL-2 melanoma = test system: SK-MEL-2 melanoma
PC-3 prostate = test system: PC-3 prostate
HCC-2998 colon = test system: HCC-2998 colon
SK-MEL-5 melanoma = test system: SK-MEL-5 melanoma
UACC-257 melanoma = test system: UACC-257 melanoma
TK-10 renal = test system: TK-10 renal
NCI/ADR-RES ovarian = test system: NCI/ADR-RES ovarian
RXF 393 renal = test system: RXF 393 renal
LOX IMVI melanoma = test system: LOX IMVI melanoma
SR leukemia = test system: SR leukemia

Row | Structure (SMILES) | TGI (NCI-H23 lung) [µM] | TGI (A549 NSCLC) [µM] | TGI (MDA-N) [µM] | TGI (MDA-MB-435) [µM] | TGI (SK-MEL-2 melanoma) [µM] | TGI (PC-3 prostate) [µM] | TGI (HCC-2998 colon) [µM] | TGI (SK-MEL-5 melanoma) [µM] | TGI (UACC-257 melanoma) [µM] | TGI (TK-10 renal) [µM] | TGI (NCI/ADR-RES ovarian) [µM] | TGI (RXF 393 renal) [µM] | TGI (LOX IMVI melanoma) [µM] | TGI (SR leukemia) [µM]
1 | Cc1ccc(S(=O)(=O)NN=C2C(C)(C)CC2(C)C)cc1 | > 100 | > 100 | > 100 | > 100 | > 100 | > 100 | > 100 | > 100 | > 100 | > 100 | > 100 | > 100 | > 100 | –
2 | Cc1c2oc3c(C)cnc(C(=O)NC4C(=O)NC(C(C)C)C(=O)N5CCCC5C(=O)N(C)CC(=O)N(C)C(C(C)C)C(=O)OC4C)c3nc-2c(C(=O)NC2C(=O)NC(C(C)C)C(=O)N3CCCC3C(=O)N(C)CC(=O)N(C)C(C(C)C)C(=O)OC2C)c(N)c1=O (centres undefined) | > 54.8 | > 75 | 16.9 | 16.7 | 10.4 | > 47.1 | 15.7 | 21.6 | 33.8 | > 75 | > 75 | 18.8 | 10.3 | –
3 | N#CC(NNC(=O)c1c(Cl)c(Cl)c(Cl)c(Cl)c1-c1nc2ccc(C(=O)c3ccccc3)cc2[nH]1)c1ccccc1 (centres undefined) | 90.3 | > 100 | 6.78 | 15.3 | 58.1 | > 100 | – | 13.3 | > 100 | 90.8 | 32.2 | 22.8 | 87.9 | 11.2
4 | COc1ccc(C(=O)N2CCN(c3ccc4c(c3)OCC(=O)N4)CC2)cc1OC | > 100 | > 100 | > 100 | > 100 | > 100 | > 100 | > 100 | > 100 | > 100 | > 100 | > 100 | – | > 100 | > 100
5 | N#CC(c1ccccc1)N(CCc1ccccc1)C(=O)c1ccc(C(=O)N(CCc2ccccc2)C(C#N)c2ccccc2)cc1 (centres undefined) | 77.6 | > 100 | 65.1 | 58 | 48.1 | > 100 | 29.1 | 27.2 | 35.3 | 29.8 | 47.3 | 61.3 | 37 | –
6 | Cc1ccc(N=NN(C)C(C)C(O)Cc2ccccc2)cc1 (centres undefined) | > 100 | > 100 | > 100 | > 100 | > 100 | > 100 | > 100 | > 100 | > 100 | > 100 | > 100 | > 100 | – | –
7 | CC1=NNC(=O)C1C1CC(c2c[nH]c3ccccc23)=NN(c2ccccc2)C1=O (centres undefined) | > 100 | > 100 | > 100 | > 100 | > 100 | > 100 | – | > 100 | > 100 | > 100 | > 100 | > 100 | > 100 | –
8 | O=c1oc2ccc3ccccc3c2cc1-c1nc(-c2ccc([N+](=O)[O-])cc2)n[nH]1 | 45.8 | > 100 | > 100 | > 100 | > 100 | > 100 | > 100 | > 100 | > 100 | – | > 100 | – | > 100 | > 100
9 | Cc1n[nH]c(=O)n1Nc1ccccc1 | > 100 | > 100 | > 100 | > 100 | – | > 100 | > 100 | > 100 | > 100 | – | > 100 | – | > 100 | > 100
10 | C=C1C2C[C@@H]3O[C@H]4C[C@H]5O[C@@]6(C[C@@H]7O[C@]8(C[C@H](C)[C@@H]9O[C@@H]%10CC(C=O)O[C@@H]%10C[C@@H]9O8)C[C@H](C)[C@@H]7O6)C[C@H]5O[C@H]4[C@H](C)[C@H]3OC(=O)C[C@H]3CC[C@@H]4OC5[C@H]6O[C@]7(CC[C@H]8CC(=C)[C@H](CC[C@@H](C[C@H]1C)O2)O8)CC6O[C@@H]5[C@@H](O7)[C@H]4O3 (some centres undefined) | 0.00195 | > 1 | < 0.0001 | < 0.0001 | – | > 1 | > 1 | > 1 | – | > 1 | – | – | – | > 1
11 | C=C[C@]1(C)CC(=O)C(C(C)C=O)[C@]12C(=O)Oc1cccc(C)c1C2=O (some centres undefined) | 33.2 | 44.4 | 27.6 | 29.3 | 32.4 | 26.3 | 31.7 | 25.9 | 33.2 | 28.2 | – | 27.6 | 27.5 | > 100
12 | O=C1NC(=S)N/C1=C\c1ccc(Cl)cc1 | > 100 | > 100 | > 100 | > 100 | > 100 | > 100 | > 100 | > 100 | – | > 100 | > 100 | > 100 | > 100 | –
13 | CCN(CC)C(=S)/N=C(\SC(=S)N(CC)CC)c1ccccc1 | > 100 | > 100 | > 73.2 | > 100 | > 100 | > 100 | > 100 | > 100 | > 100 | > 100 | > 100 | > 100 | 36.1 | –
14 | Cc1cn(CC2=NC3CCCCC3N2)c(=O)[nH]c1=O (centres undefined) | > 100 | > 100 | – | – | > 100 | > 100 | > 100 | > 100 | > 100 | > 100 | > 100 | > 100 | > 100 | > 100
15 | CSCCC(NC(=O)Cc1ccc(C(=O)c2ccccc2)cc1)C(=O)N1CCN(CCCCN2c3ccccc3Sc3cc(N=[N+]=[N-])ccc32)CC1 (centres undefined) | > 100 | – | – | – | > 100 | > 100 | > 100 | > 100 | > 100 | > 100 | – | > 100 | > 100 | –
16 | CC(=O)c1cc2c(s1)C(=O)c1ccsc1C2=O | 0.337 | 4.2 | 0.197 | 0.226 | 1.37 | 1.15 | 3.17 | 0.262 | 0.285 | 3.69 | 2.59 | 0.683 | 0.0782 | –
17 | Fc1ccc(Oc2nc3ccccc3nc2-c2ccccc2)cc1 | > 100 | – | – | > 100 | > 100 | > 100 | > 100 | > 100 | > 100 | > 100 | – | > 100 | > 100 | > 100
